Experimental data as given in US20240197628A1, “INHALABLE DRY POWDER FORMULATIONS COMPRISING ANGIOGENESIS INHIBITORS” (Lonza Bend Inc., priority 2020, published 2024).

Assays:
[1] = solution prepared 18 hours before spray drying; cited from earlier work
NSCLC cell line Calu-3 = assay: Orthotopic nude rat model for lung cancer, in vivo efficacy study; conditions: each with cisplatin IP 3 mg/kg, 1.5 mg/kg deposited INH vs 15 mg/kg IP, 8 weeks
Experimental: NSCLC cell line Calu-3 was instilled into the lungs of X-irradiated rats by an intratracheal route, targeting 1.5×10^7 cells per installation. For the first four weeks of the study, no treatment was administered, allowing growth of the tumor cells. Inhaled bevacizumab SDD was evaluated as a primary treatment as well as a maintenance therapy.
Cisplatin was administered by IP at 3 mg/kg. Powder was aerosolized using a rotating brush generator and delivered to the rats passively through nasal inhalation. […] Groups 1-4 were evaluated for primary efficacy after 8 weeks with lung weight as the end point. Groups 5-7 were evaluated for maintenance efficacy after 12 weeks with lung weight and survival as the end point.

| Molecule | stability in aqueous solution [1] | tumor burden, inhaled vs IP bevacizumab (NSCLC cell line Calu-3; listed as IP bevacizumab) | tumor burden, inhaled vs IP bevacizumab (NSCLC cell line Calu-3; listed as bevacizumab delivered via IP injection) |
| --- | --- | --- | --- |
| N.N.[Cl][Pt][Cl] [cisplatin] | converts to transplatin | – | – |
| Bevacizumab [bevacizumab control] | – | indistinguishable | equal |
